Source: paper PMC3527388, “Transport Mechanisms and Their Pathology-Induced Regulation Govern Tyrosine Kinase Inhibitor Delivery in Rheumatoid Arthritis” (PLoS ONE, 2012)

Target: T1, novel organic cation transporter 1 (hOCTN1) (Homo sapiens, UniProt Q9H015)
T1 construct: gene SLC22A4
T1 sequence (Q9H015 1-551): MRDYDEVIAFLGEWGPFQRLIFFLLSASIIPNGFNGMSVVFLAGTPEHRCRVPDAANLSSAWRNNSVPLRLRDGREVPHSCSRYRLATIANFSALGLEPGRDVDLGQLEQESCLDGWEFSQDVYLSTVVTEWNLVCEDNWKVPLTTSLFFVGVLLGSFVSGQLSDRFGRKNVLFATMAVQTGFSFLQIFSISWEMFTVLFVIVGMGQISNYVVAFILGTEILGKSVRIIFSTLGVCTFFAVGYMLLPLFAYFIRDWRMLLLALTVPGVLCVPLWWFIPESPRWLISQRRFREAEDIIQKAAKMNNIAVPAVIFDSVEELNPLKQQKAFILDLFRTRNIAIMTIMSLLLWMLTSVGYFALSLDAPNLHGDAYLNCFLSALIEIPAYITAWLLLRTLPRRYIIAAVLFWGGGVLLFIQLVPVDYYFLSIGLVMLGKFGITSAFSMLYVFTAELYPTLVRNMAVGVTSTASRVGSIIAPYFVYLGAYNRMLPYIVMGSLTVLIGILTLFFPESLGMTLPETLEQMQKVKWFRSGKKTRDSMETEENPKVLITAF
Assay: ASP+ uptake in HEK293 cells with doxycycline-induced versus uninduced hOCTN1
Assay type: cell-based
From the text: ASP+ uptake in HEK293 cells with doxycycline-induced versus uninduced hOCTN1 on novel organic cation transporter 1 (hOCTN1) | ASP^+ is a substrate for hOCTN1. Comparison of ASP^+ uptake by HEK293 cells stably transfected

## CN(C)c1ccc(C=Cc2cc[n+](C)cc2)cc1 [ASP+, 4-(4-(Dimethylamino)Styryl)-N-methylpyridinium]
  ASP+ uptake in HEK293 cells with doxycycline-induced versus uninduced hOCTN1: ASP^+ is a substrate for hOCTN1. Comparison of ASP^+ uptake by HEK293 cells stably transfected
